These results are taken from patent US7008949B2, “Heterocyclic compounds which inhibit leukocyte adhesion mediated by α4 integrins” (Elan Pharmaceuticals, Inc., priority 2003, dated 2006).

Converted amounts (≈) assume the structure as drawn.

As usually defined, the IC50 is the concentration that inhibits the measured activity by half.

The target of one data set is T1, α4β1 Integrin (Homo sapiens, UniProt P05556+P13612).
T1 construct: endogenous in cells; host or cells: Jurkat cells
In words: α4β1 Integrin Adhesion Assay: Jurkat cell adhesion to human plasma fibronectin. The data set is classed as cell-based. The note with it: Jurkat cells. Here is the method: 96 well plates (Costar 3590 EIA plates) were coated with human fibronectin (Gibco/BRL, cat #33016-023) at a concentration of 10 μg/mL overnight at 4° C. The plates were then blocked with a solution of bovine serum albumin (BSA; 0.3%) in saline. Jurkat™ cells (maintained in log phase growth) were labeled with Calcein AM according to the manufacturer's instructions, and suspended at a concentration of 2×10^6 cells/mL in Hepes/Saline/BSA. The cells were then exposed to test and control compounds for 30 minutes at room temperature before transfer to individual wells of the fibronectin coated plate. Adhesion was allowed to occur for 35 minutes at 37° C. The wells were then washed by gentle aspiration and pipetting with fresh saline. Fluorescence associated with the remaining adherent cells was quantified using a fluorescence plate reader at EX 485/EM 530.
Cell cultures were prepared by first splitting the stationary phase Jurkat™ cells at 1:10 on day one, and 1:2 on day two to perform assay on day 3. The cells split 1:10 on day one were split 1:4 on day 3 for a day 4 assay.
The assay plates were prepared by first making a working solution of Gibco/BRL Human Fibronectin (cat # 33016-023) in PBS++, at 10 μg/mL.
A Costar 3590 EIA plate was then coated with 50 μL/well for 2 hours at room temperature (thought it can also be left overnight at 4° C.). Finally the plate was asperated and blocked with Hepes/Saline Buffer, 100 μL/well, for 1 hour at RT followed by washing three times with 150 μL of PBS++.
Compound dilutions were accomplished by preparing 1:3 serial dilutions of compounds as follows. For each plate (4 compounds/plate) 600 μL were added to 4 Bio-Rad Titertubes in a Titertube rack. Enough compound was added to each appropriate tube to give a 2× concentration using methods well known in the art. Using Falcon Flexiplates, 100 μL of Hepes/Saline buffer or human serum were added to rows B through G. A multi-channel pipetter set to 180 μL was used to with four tips spaced evenly the pipetter. Each set of four tubes was mixed 5 times and 180 μL of 2× compound was transferred to the first column of each compound dilution in Row B, leaving Row A empty. 180 μL were added to the other wells in Row A. Serial dilutions were performed down the plate by transferring 50 μL to the next dilution and mixing 5 times, changing tips each time after mixing. Dilutions were stopped at Row F. Row G had no compound present.
A 20 μg/mL solution in Hepes/Saline buffer or human serum, of 21/6 antibody was the positive control and was set aside in a reagent trough to add to cell suspension plate.
The cell staining was accomplished by first harvesting the log-phase Jurkat™ cells by centrifugation in 50 mL tubes (1100 rpm for 5 minutes). The cells were resuspended in 50 mL PBS++, spun, and resuspend in 20 mL PBS++. The cells were stained by adding 20 μL of Calcein AM for 30 minutes R.T. The volume was brought to 50 mL with Hepes/Saline buffer and the cells were counted, spun, and resuspend to 2×10^6 cells/mL in Hepes/Saline buffer or human serum.
The compounds were incubated using the following procedure. In a new flexiplate, 65 μL of stained cells were added to Rows B through H. Then 65 μL of 2× compounds were added to the appropriate rows following the plate setup and mixed 3×. 65 μL of 2×-21/6 antibody were added to Row H and mixed 3×. Finally the plate was incubated at room temperature for 30 minutes.
Fibronectin adhesion was measured using a fluorescent plate reader at EX 485/EM 530 after the following work up procedure. After incubation, the cells were mixed 3× and 100 μL were transferred to the Fibronectin coated plates and incubated at 37° C. for about 35 minutes. Each plate was washed, row by row, by gently pipetting 100 μL of R.T. PBS++ down the sides of the wells and turning the plate 90 degrees to aspirate. This procedure was repeated for a total of 3 washes. Each well was filled with 100 μL after washing by pipetting down the side of the well. […]

A short description of data set [1]: Cassette dosing and serum analysis for determination of oral bioavailability. The conditions noted are these: male SD rats, oral cassette of 6 compounds, total dose 10 mg/kg, plasma at 4, 8, 12 h. Format: in vivo, rat. Here is the method:
The oral bioavailability was screened by dosing rats with a cassette, i.e. mixture of 6 compounds per dosing solution. The cassette included 5 test articles and a standard compound, for a total dose of 10 mg/kg. Each compound/test article was converted to the sodium salt with equimolar 1 N NaOH and dissolved in water at 2 mg/mL. The cassette was prepared by mixing equal volumes of each of the six solutions. The cassette dosing solution was mixed well and then the pH was adjusted to 7.5–9. The dosing solution was prepared the day before the study and stirred overnight at room temperature.
Male Sprague Dawley (SD) rats from Charles River Laboratories, 6–8 weeks old were used in this screen. Rats were quarantined for at least one day and had continuous access to food and water. On the night before the administration of the cassette, the rats were fasted for approximately 16 h.
Four SD rats were assigned in each cassette. A single dose of the dosing solution was administered orally to each rat. The dosing volume (5 mL/kg) and time were recorded and rats were fed 2 h after dosing.
Blood samples were collected via cardiac puncture at the following time points: 4 h, 8 h and 12 h. Immediately prior to blood collection, rats were anesthetized with CO2 gas within 10–20 seconds. After the 12-hour samples were collected, the rats were euthanized via CO2 asphyxiation followed by cervical dislocation.
Blood samples were kept in heparinized microtainer tubes under sub-ambient temperature (4° C.) before they were processed. Blood samples were centrifuged (10000 rpm for 5 minutes) and plasma samples were removed and stored in a −20° C. freezer until analyzed for drug levels. Drug levels in the plasma were analyzed using the following protocol for direct plasma precipitation.
The in vivo plasma samples were prepared in a 1.5 mL 96-well plate, by adding, in order, 100 μL of the test plasma, 150 μL of methanol, followed by vortexing for 10–20 seconds. 150 μL of 0.05 ng/μL of an Internal Standard in acetonitrile were added and vortexed for 30 seconds.
The standard curve samples were prepared in a 1.5 mL 96-well plate, by adding, in order, 100 μL of control mouse plasma, followed by 150 μL of methanol and vortexing for 10–20 seconds. 150 μL of 0.05 ng/μL of an Internal Standard in acetonitrile were added and vortexed for 30 seconds. The samples were spiked with 0–200 ng (10 concentrations) of the compound of interest in 50% methanol to obtain a standard curve range of 0.5 ng/mL–2,000 ng/mL. Again, the sample was vortexed for 30 seconds.
The samples were then spun for 20–30 minutes at 3000 rpm in an Eppendorf microfuge before 80–90% of supernatant was transferred into a clean 96-well plate. The organic solvent was then evaporated until the samples were dry (under N2 at 40° C./30–60 min (ZymarkTurbovap)).
The residue was then dissolved in […] mobile phase (50% CH3OH/0.1% TFA). LC/MS/MS was then run using a PE-Sciex API-3000 triple quadurpole mass spectrometer (SN0749707), Perkin-Elmer, Series200auto-sampler, and shimadzu 10A pump. Acquisition was done with PE-Sciex Analyst (v1.1) and data analysis and quantification were accomplished using PE-Sciex Analyst (v1.1). A 5–50 μL sample volume was injected onto a reverse phase ThermoHypersil DASH-18 column (Keystone 2.0×20 mm, 5 μm, PN: 8823025-701) using a mobile phase of 25% CH3OH, 0.1% TFA-100% CH3OH, 0.1% TFA. The run time was about 8 minutes at a flow rate of about 300 μL/minutes.
The Area Under the Curve (AUC) was calculated using the linear trapezoidal rule from t=0 to the last sampling time tx (see Handbook of Basic Pharmacokinetics, Wolfgang A. Ritschel and Gregory L. Kearns, 5th ed, 1999). AUC^0→tx═S((Cn+Cn+1)/2))·(tn+1−tn)[(μg/mL)h]
In the case of the cassette dosing paradigm, samples at 4, 8 and 12 h post extravascular dosing, the AUC was calculated from t=0 to t=12 h.

The mark [2] stands for this setting: IC50, Cell Adhesion to Human Plasma Fibronectin (With Human Serum), with human serum.
[3] abbreviates: IC50, Cell Adhesion to Human Plasma Fibronectin (Without the Human Serum), without human serum.

T1 sequence (P13612 34-1032): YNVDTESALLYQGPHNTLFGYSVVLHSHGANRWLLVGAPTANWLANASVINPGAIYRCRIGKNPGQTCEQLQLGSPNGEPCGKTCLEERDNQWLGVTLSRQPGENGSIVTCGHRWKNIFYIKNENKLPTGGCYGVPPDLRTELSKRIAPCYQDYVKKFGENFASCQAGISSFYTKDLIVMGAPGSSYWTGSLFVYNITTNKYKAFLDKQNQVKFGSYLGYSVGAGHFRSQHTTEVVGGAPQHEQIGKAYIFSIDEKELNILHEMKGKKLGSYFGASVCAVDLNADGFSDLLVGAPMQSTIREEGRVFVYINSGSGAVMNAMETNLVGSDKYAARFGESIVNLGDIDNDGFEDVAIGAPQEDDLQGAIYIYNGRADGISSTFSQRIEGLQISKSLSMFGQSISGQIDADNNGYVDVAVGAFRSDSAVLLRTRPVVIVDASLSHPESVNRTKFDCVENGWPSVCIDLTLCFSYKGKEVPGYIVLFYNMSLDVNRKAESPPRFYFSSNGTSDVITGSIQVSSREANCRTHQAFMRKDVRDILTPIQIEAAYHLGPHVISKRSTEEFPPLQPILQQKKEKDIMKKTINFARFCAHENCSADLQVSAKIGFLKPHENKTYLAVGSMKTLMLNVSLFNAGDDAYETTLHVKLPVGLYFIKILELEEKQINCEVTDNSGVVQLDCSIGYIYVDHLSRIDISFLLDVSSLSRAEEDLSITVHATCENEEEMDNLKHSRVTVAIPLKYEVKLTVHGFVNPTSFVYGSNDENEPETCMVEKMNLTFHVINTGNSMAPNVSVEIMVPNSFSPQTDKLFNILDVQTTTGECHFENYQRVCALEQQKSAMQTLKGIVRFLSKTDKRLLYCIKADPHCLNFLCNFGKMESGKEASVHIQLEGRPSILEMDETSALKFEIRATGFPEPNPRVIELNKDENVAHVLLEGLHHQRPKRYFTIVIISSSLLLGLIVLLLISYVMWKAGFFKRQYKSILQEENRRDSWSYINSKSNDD
T1 sequence (P05556 21-798): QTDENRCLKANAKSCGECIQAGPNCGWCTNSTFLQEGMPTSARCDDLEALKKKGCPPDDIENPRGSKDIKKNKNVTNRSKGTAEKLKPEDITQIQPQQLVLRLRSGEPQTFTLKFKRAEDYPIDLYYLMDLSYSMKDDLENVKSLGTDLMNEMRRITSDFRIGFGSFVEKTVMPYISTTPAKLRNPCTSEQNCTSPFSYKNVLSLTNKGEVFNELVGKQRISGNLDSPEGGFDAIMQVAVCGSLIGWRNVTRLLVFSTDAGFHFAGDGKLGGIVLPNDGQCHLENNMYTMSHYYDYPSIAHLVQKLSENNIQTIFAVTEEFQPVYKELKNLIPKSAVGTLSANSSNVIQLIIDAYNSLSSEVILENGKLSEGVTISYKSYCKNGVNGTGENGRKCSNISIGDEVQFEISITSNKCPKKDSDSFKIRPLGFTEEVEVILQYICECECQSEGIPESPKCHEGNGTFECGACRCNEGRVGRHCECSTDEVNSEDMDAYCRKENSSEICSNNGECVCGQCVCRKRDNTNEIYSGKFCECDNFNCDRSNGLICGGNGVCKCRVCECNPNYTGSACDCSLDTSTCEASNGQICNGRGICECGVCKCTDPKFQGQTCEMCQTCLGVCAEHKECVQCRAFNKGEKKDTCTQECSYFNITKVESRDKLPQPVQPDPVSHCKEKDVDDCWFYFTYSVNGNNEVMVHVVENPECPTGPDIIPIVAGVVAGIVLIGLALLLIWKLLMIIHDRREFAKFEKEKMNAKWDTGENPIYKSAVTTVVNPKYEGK

Consider `CCN(CC)c1ncc(N(CC(F)(F)F)S(=O)(=O)c2ccc(F)cc2)c(NC(Cc2ccc(OC(=O)N(C)C)cc2)C(=O)O)n1` (stereo not drawn) [Example 29, 2-{2-diethylamino-5-[(4-fluorobenzenesulfonyl)-(2,2,2-trifluoroethyl)amino]pyrimidin-4-ylamino}-3-(4-dimethylcarbamoyloxyphenyl)propionic acid], for which the IC50 was 53 nM against α4β1 Integrin (setting [2]) and 3.35 nM at α4β1 Integrin (setting [3]). Also, the “AUC (average AUC 0→12 h)” value in data set [1] was 0.2941 (μg/mL)h.

As for `CCN(CC)c1ncc(N(CC)S(=O)(=O)c2cccc(F)c2F)c(NC(Cc2ccc(OC(=O)N(C)C)cc2)C(=O)O)n1` (stereo not drawn) [Example 26, 2-{2-diethylamino-5-[(2.3-difluorobenzenesulfonyl)ethylamino]pyrimidin-4-ylamino}-3-(4-dimethylcarbamoyloxyphenyl) propionic acid], at α4β1 Integrin (with human serum), the “IC50, Cell Adhesion to Human Plasma Fibronectin (With Human Serum)” value turned out to be 18.48 ng/mL (≈ 0.0298 µM). For the same compound, the “IC50, Cell Adhesion to Human Plasma Fibronectin (Without the Human Serum)” value against α4β1 Integrin (without human serum) stood at 1 ng/mL (≈ 0.00161 µM). Also, the “AUC (average AUC 0→12 h)” value in data set [1] is 0.3392 (μg/mL)h.

Turning to `CCN(CC)c1ncc(N(CC(C)C)S(=O)(=O)c2ccc(F)cc2)c(N[C@@H](Cc2ccc(OC(=O)N(C)C)cc2)C(=O)O)n1` [Example 23, 2-{2-diethylamino-5-[(4-fluorobenzenesulfonyl)isobotylamino]pyrimidin-4-ylamino}-3-(4-dimethylcarbamoyloxyphenyl)propionic acid], the IC50 is 117 nM against α4β1 Integrin (setting [2]) and 6.34 nM at α4β1 Integrin (setting [3]). Moreover, in data set [1], the “AUC (average AUC 0→12 h)” value was 0.413 (μg/mL)h.

For the compound “2-{2-diethylamino-5-[(4-fluorobenzenesulfonyl)allylamino]pyrimidin-4-ylamino}-3-(4-dimethylcarbamoyloxyphenyl)propionic acid [Example 22]”, at α4β1 Integrin (with human serum), the “IC50, Cell Adhesion to Human Plasma Fibronectin (With Human Serum)” value came to 25.29 ng/mL. Moreover, on α4β1 Integrin (without human serum), the “IC50, Cell Adhesion to Human Plasma Fibronectin (Without the Human Serum)” value was determined as 1.506 ng/mL. Further, the “AUC (average AUC 0→12 h)” value in data set [1] is 0.6297 (μg/mL)h.

As to `CCN(CC)c1ncc(N(CC)S(=O)(=O)c2ccc(F)cc2F)c(N[C@@H](Cc2ccc(OC(=O)N(C)C)cc2)C(=O)O)n1` [Example 18], the values for the IC50 against α4β1 Integrin (setting [2]) and against α4β1 Integrin (setting [3]) were 40.3 nM and 3.22 nM, respectively. For the same compound, the “AUC (average AUC 0→12 h)” value in data set [1] was 0.2578 (μg/mL)h.
